The values below are quoted from earlier work in patent publication US20130317107A1, “Platelet-Based Methods to Detect and Monitor Treatment Benefits in Mucosal and Nervous Systems Diseases” (priority 2012, published 2013).

The conditions of data set [1]: relative to the stable cysteine disulfide.
The subject of the next data set is p38 MAP kinase. Conditions: human bronchial epithelial cells.
Data set [2] deals with human bronchial epithelial cells.
The next data set has as its system dogs. Conditions: administered intravenously in dogs.
The conditions of data set [3]: relative to cysteine.
The subject of data set [4] is interluekin-1 beta (IL-1β)-induced eotaxin and monocyte chemotactic protein-1 (MCP-1) expression. The settings on record: by inhibiting activation of p38 MAP kinase.
Data set [5] relates to collagen-stimulated platelets.

Take `CC(=O)N[C@@H](CS)C(=O)O` [N-acetylcysteine]: the “solubility compared with cystine” value in data set [1] is reported as “much more soluble”. In addition, the “DEP-induced p38 MAP kinase activity” value in the data set on p38 MAP kinase is recorded as “inhibit”. Besides, the “DEP-induced IL-8 and RANTES production” value in data set [2] was “inhibited”. In addition, in the data set with dogs, the “protection against pulmonary oxygen toxicity and ischemic and reperfusion damage” value is given as “protect”. The “stability compared with cysteine” value in data set [3] was “about 10 times”. In addition, the “IL-1β-induced eotaxin and MCP-1 expression and production” value in data set [4] is “inhibit”.
For the compound `CC(=O)Oc1ccccc1C(=O)O` [Aspirin], the CD40L release result in data set [5] was “only partially inhibit”.
